Literature values as cited in EP1368044B1, “IMMUNOMODULATOR FOR THE MANAGEMENT OF HUMAN IMMUNODEFICIENCY VIRUS (HIV) DISEASE/INFECTION” (Bakulesh, Mafatlal Khamar, priority 2002, dated 2002).
Ends that are not written are not given here.

Tested on: HIV
Conditions: along with interleukin-2

Thymosin α1: a 28-aminoacid peptide (SDAAVDTSSEITTKDLKEKKEVVEEAEN; ends and bridges not checked; UniProt P06454 2-29, looked up)
efficacy to improve CD4: no significant effect
